These results are taken from US20240365785A1, “ACTIVE COMPOUND COMBINATIONS AND FUNGICIDE COMPOSITIONS COMPRISING THOSE” (Bayer Aktiengesellschaft, priority 2021, published 2024).

Assay type in all cases: cell-based
Holding throughout (conditions): alone

Assay [1] relates to Colletotrichum coccodes. The assay can be described thus: in vitro-Test with Colletotrichum coccodes.
The test system of assay [2] is Botrytis cinerea. Put plainly: in vitro-Test with Botrytis cinerea.
Assay [3] relates to Cordana musae. The assay can be described thus: in vitro-Test with Cordana musae.
Assay [4] concerns Alternaria alternata. The assay can be described thus: in vitro-Test with Alternaria alternata.
Assay [5] has as its system Fusarium culmorum. The assay can be described thus: in vitro-Test with Fusarium culmorum. Here is the method:
Wells of 96-well microtiter plates are filled with 10 μl of a preparation of test compound or compound combination in methanol+emulsifier alkylaryl-polyglycol-ether. Thereafter, the solvent is evaporated in a hood. At the next step, into each well 100 μl of liquid potato dextrose medium is given, that has been amended with an appropriate concentration of spores or mycelium suspension of the test fungus.
With the aid of a photometer the extinction in all wells is measured at the wavelength of 620 nm.
The microtiter plates are incubated at 20° C. and 85% relative humidity. The inhibition of growth is determined again photometrically 3-5 days after the application. Efficacy is calculated in relation to the untreated control, 0% efficacy means fungal growth as high as in untreated control while 100% efficacy means no fungal growth is measured.

The subject of assay [6] is Diaporthe citri. Put plainly: in vitro-Test with Diaporthe citri.

`CCC(=O)Oc1c(OC)ccnc1C(=O)N[C@@H](C)C(=O)O[C@@H](C)[C@@H](C)c1ccccc1C` [(3.017) Metarylpicoxamid, metarylpicoxamid, reference compound]: the Efficacy % is on record as 19% in assay [1] (0.08 ppm); 26% in assay [1] (0.4 ppm); 0% in assay [2] (0.8 ppm); 20% in assay [2] (10 ppm); 44% in assay [3] (0.08 ppm); 50% in assay [4] (10 ppm). The Efficacy % in assay [5] (0.08 ppm) is 10%; in assay [5] (2 ppm), 0%; in assay [5] (10 ppm), 4%; in assay [6] (2 ppm), 89%; in assay [6] (10 ppm), 89%.

As for `COC(=O)C(O)(Cn1cncn1)c1ccc(Oc2ccc(Cl)cc2)cc1Cl` (centres unmarked) [(I-1), Methyl 2-[2-chloro-4-(4-chlorophenoxy)phenyl]-2-hydroxy-3-(1,2,4-triazol-1-yl)propanoate], the Efficacy % in assay [1] (0.02 ppm) stood at 0%; in assay [1] (0.1 ppm), 0%; in assay [1] (2.5 ppm), 91%; in assay [2] (0.02 ppm), 1%; in assay [2] (0.1 ppm), 0%; in assay [3] (0.02 ppm), 14%. The Efficacy % in assay [3] (0.5 ppm) was determined as 54%; in assay [3] (2.5 ppm) it was 97%; in assay [4] (0.02 ppm), 3%; in assay [4] (0.1 ppm), 0%; in assay [4] (0.5 ppm), 18%; in assay [5] (2.5 ppm) it was 25%. The Efficacy % in assay [6] (0.02 ppm) is reported as 0%; in assay [6] (0.1 ppm) it was 0%; in assay [6] (2.5 ppm), 100%.
